Assay results reported in the kinase profiling compilation of Christmann-Franck et al. (2016).
Where “and” joins values, the source holds several entries; their conditions need not be identical. Equal values may be shown once.

How the values were obtained:
Test in all cases: radiometric filter-binding kinase assay, Kinase HotSpot
Details in all cases: compound 0.5 µM; ATP 10 µM
ADRBK2 (human) = ADRBK2 (human) (UniProt P35626)
AKT3 (human) = AKT3 (human) (UniProt Q9Y243)
ALK (human) = ALK (human) (UniProt Q9UM73)
BRSK2 (human) = BRSK2 (human) (UniProt Q8IWQ3)
CAMK1G (human) = CAMK1G (human) (UniProt Q96NX5)
CAMKK2 (human) = CAMKK2 (human) (UniProt Q96RR4)
CDC42BPA (human) = CDC42BPA (human) (UniProt Q5VT25)
CDK3 CCNE1 (human) = CDK3 CCNE1 (human) (UniProt Q00526+P24864)
CDK5 CDK5R1 p25 (human) = CDK5 CDK5R1 p25 (human) (UniProt Q00535+Q15078)
CSK (human) = CSK (human) (UniProt P41240)
DDR2 (human) = DDR2 (human) (UniProt Q16832)
DSTYK (human) = DSTYK (human) (UniProt Q6XUX3)
EPHA7 (human) = EPHA7 (human) (UniProt Q15375)
EPHB1 (human) = EPHB1 (human) (UniProt P54762)
FES (human) = FES (human) (UniProt P07332)
FGFR1 (human) = FGFR1 (human) (UniProt P11362)
FGFR4 (human) = FGFR4 (human) (UniProt P22455)
FYN (human) = FYN (human) (UniProt P06241)
GRK7 (human) = GRK7 (human) (UniProt Q8WTQ7)
INSRR (human) = INSRR (human) (UniProt P14616)
ITK (human) = ITK (human) (UniProt Q08881)
JAK2 JH1 JH2 (human) = JAK2 JH1 JH2 (human) (UniProt O60674)
LYN (human) = LYN (human) (UniProt P07948)
MAPK1 (human) = MAPK1 (human) (UniProt P28482)
MAPK9 (human) = MAPK9 (human) (UniProt P45984)
MARK2 (human) = MARK2 (human) (UniProt Q7KZI7)
MKNK2 (human) = MKNK2 (human) (UniProt Q9HBH9)
NEK1 (human) = NEK1 (human) (UniProt Q96PY6)
NEK7 (human) = NEK7 (human) (UniProt Q8TDX7)
PAK1 (human) = PAK1 (human) (UniProt Q13153)
PASK (human) = PASK (human) (UniProt Q96RG2)
PLK3 (human) = PLK3 (human) (UniProt Q9H4B4)
PRKCG (human) = PRKCG (human) (UniProt P05129)
PRKD3 (human) = PRKD3 (human) (UniProt O94806)
RPS6KA3 KD1 KD2 (human) = RPS6KA3 KD1 KD2 (human) (UniProt P51812)
RPS6KA6 KD1 KD2 (human) = RPS6KA6 KD1 KD2 (human) (UniProt Q9UK32)
SGK3 (human) = SGK3 (human) (UniProt Q96BR1)
SRC (human) = SRC (human) (UniProt P12931)
STK11 (human) = STK11 (human) (UniProt Q15831)
TEC (human) = TEC (human) (UniProt P42680)
TTK (human) = TTK (human) (UniProt P33981)
TXK (human) = TXK (human) (UniProt P42681)

RPS6KA3 KD1 KD2 (human), sequence (P51812 whole entry, looked up): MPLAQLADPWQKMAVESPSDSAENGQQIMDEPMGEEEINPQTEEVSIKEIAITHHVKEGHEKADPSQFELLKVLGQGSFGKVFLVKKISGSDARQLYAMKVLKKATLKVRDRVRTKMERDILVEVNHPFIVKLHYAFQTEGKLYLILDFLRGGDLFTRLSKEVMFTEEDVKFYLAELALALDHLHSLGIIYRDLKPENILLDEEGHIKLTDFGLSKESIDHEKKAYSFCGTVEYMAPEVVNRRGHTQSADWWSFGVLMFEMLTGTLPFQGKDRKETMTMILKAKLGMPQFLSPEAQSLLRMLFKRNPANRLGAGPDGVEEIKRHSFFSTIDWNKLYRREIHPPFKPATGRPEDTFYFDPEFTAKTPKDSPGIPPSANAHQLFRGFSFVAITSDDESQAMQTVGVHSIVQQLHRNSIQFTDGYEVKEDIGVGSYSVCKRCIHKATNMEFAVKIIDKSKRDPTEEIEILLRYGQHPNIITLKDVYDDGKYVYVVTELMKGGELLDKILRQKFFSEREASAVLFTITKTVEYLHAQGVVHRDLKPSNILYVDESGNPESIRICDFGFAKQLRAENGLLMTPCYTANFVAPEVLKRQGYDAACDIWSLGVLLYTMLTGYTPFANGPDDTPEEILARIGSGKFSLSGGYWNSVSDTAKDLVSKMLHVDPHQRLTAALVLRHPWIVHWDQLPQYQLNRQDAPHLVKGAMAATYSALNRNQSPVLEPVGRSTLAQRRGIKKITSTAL
NEK1 (human), sequence (Q96PY6 whole entry, looked up): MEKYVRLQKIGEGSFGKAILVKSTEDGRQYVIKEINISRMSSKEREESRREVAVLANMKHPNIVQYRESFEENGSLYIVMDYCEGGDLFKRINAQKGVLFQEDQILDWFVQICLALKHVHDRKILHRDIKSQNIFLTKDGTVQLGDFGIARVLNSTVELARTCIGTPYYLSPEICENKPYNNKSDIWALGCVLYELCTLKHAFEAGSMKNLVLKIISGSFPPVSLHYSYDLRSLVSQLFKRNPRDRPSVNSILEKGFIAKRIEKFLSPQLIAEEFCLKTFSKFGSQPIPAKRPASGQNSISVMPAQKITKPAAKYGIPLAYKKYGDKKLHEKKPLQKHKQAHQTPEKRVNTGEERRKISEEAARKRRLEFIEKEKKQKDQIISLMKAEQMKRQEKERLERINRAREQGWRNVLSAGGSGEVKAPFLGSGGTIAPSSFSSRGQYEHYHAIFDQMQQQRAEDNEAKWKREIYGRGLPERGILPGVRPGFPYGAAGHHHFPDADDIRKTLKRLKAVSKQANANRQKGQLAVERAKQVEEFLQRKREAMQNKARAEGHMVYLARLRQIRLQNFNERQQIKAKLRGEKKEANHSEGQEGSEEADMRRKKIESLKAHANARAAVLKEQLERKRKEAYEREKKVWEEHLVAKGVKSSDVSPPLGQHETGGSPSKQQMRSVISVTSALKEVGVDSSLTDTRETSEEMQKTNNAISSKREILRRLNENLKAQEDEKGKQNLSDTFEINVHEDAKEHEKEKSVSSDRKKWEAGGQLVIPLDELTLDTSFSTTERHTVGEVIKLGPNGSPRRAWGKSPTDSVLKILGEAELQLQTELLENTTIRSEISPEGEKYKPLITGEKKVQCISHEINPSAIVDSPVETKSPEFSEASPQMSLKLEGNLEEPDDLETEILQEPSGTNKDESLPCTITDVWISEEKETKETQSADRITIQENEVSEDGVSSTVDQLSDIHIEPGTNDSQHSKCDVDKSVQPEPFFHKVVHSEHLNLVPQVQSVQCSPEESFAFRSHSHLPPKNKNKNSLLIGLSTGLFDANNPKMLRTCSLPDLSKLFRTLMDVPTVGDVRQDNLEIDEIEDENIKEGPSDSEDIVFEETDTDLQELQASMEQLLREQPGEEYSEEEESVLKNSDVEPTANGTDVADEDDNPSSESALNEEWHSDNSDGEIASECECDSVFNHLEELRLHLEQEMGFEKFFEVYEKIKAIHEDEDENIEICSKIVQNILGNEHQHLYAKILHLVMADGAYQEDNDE
BRSK2 (human), sequence (Q8IWQ3 whole entry, looked up): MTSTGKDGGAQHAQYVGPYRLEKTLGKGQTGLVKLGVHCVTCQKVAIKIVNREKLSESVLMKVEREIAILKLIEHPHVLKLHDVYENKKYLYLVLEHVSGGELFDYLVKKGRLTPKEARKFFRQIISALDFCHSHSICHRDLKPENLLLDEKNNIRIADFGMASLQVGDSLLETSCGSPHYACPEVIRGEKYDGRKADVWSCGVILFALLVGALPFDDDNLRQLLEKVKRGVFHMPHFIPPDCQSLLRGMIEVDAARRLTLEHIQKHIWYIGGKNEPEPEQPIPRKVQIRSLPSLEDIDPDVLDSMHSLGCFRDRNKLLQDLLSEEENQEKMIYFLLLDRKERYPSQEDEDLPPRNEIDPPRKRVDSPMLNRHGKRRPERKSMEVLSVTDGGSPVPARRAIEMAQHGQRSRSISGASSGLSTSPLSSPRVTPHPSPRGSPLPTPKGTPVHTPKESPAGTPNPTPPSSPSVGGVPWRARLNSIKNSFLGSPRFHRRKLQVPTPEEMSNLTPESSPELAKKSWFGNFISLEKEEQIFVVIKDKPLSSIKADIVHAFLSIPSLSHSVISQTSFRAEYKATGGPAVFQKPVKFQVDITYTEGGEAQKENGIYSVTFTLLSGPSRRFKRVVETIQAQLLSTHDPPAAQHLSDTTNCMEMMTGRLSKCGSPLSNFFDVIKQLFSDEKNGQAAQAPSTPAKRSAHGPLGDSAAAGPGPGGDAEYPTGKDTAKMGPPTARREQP
RPS6KA6 KD1 KD2 (human), sequence (Q9UK32 whole entry, looked up): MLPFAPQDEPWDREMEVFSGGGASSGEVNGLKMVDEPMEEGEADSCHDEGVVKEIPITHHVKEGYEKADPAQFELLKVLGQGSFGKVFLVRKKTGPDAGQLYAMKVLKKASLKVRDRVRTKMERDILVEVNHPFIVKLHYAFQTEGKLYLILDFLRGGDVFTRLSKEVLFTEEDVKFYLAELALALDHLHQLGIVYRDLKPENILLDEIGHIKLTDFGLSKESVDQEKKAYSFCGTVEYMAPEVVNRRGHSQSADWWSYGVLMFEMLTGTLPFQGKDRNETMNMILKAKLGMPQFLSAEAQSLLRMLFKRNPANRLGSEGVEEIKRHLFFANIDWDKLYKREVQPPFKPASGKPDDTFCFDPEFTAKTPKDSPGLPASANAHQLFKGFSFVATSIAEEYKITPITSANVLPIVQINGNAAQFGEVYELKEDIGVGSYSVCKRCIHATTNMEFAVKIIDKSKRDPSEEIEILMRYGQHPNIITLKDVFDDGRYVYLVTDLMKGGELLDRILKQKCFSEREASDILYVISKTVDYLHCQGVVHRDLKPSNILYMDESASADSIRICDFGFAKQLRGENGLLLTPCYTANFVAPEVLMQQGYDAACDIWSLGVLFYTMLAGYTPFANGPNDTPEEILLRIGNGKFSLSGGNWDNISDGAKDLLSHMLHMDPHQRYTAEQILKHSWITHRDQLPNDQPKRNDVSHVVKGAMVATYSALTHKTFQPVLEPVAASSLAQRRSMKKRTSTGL
SGK3 (human), sequence (Q96BR1 whole entry, looked up): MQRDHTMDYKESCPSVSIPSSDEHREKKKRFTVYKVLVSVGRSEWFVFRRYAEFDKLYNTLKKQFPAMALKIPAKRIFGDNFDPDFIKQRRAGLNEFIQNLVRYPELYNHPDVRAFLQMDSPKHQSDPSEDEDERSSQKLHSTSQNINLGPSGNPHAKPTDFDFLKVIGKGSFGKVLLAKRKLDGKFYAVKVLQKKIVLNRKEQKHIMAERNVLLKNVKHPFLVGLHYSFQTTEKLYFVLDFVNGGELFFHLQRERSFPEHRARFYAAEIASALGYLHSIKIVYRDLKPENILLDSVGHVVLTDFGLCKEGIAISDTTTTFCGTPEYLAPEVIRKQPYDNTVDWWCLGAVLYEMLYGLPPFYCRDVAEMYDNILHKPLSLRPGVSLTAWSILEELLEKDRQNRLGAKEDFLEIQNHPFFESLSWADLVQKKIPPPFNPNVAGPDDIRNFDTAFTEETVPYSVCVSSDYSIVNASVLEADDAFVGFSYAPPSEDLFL
MAPK1 (human), sequence (P28482 whole entry, looked up): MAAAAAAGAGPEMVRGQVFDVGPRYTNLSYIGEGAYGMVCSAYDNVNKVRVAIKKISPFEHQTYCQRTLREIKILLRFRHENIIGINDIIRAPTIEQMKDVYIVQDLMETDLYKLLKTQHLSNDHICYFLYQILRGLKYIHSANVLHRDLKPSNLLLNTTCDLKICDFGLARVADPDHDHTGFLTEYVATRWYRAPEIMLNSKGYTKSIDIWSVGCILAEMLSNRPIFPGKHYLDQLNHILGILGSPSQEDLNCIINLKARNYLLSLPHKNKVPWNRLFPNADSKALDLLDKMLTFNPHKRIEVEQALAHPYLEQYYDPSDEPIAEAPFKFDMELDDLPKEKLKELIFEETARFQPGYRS
PAK1 (human), sequence (Q13153 whole entry, looked up): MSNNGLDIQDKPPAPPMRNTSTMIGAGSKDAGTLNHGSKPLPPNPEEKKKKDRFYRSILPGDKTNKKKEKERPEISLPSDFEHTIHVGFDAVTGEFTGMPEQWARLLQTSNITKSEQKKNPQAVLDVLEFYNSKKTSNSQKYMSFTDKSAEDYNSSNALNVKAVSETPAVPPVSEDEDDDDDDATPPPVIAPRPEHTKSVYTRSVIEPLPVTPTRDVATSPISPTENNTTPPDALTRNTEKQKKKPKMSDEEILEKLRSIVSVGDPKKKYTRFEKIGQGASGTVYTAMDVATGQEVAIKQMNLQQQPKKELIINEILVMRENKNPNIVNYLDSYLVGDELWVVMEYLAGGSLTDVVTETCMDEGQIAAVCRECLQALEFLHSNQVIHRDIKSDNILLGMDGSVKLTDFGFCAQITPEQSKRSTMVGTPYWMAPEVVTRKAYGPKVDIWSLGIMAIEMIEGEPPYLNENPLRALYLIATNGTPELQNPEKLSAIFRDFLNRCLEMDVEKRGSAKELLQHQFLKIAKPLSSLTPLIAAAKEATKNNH

Cc1ccc(NC(=O)c2ccc(CN3CCN(C)CC3)cc2)cc1Nc1nc(-c2cccnc2)cs1
residual activity (ADRBK2 (human)): 100% | residual activity (AKT3 (human)): 102% | residual activity (ALK (human)): 103% | residual activity (BRSK2 (human)): 99.9% | residual activity (CAMK1G (human)): 106% | residual activity (CAMKK2 (human)): 101% | residual activity (CDC42BPA (human)): 104% | residual activity (CDK3 CCNE1 (human)): 90.2% | residual activity (CDK5 CDK5R1 p25 (human)): 104% | residual activity (CSK (human)): 104% | residual activity (DDR2 (human)): 36.4% | residual activity (DSTYK (human)): 92.4% | residual activity (EPHA7 (human)): 99.7% | residual activity (EPHB1 (human)): 94.9% | residual activity (FES (human)): 105% | residual activity (FGFR1 (human)): 103% | residual activity (FGFR4 (human)): 89.8% | residual activity (FYN (human)): 37.3% | residual activity (GRK7 (human)): 104% | residual activity (INSRR (human)): 102% | residual activity (ITK (human)): 98.7% | residual activity (JAK2 JH1 JH2 (human)): 96.3% | residual activity (LYN (human)): 16.2% and 18.7% | residual activity (MAPK1 (human)): 91.6% | residual activity (MAPK9 (human)): 110% | residual activity (MARK2 (human)): 104% | residual activity (MKNK2 (human)): 103% | residual activity (NEK1 (human)): 116% | residual activity (NEK7 (human)): 96.3% | residual activity (PAK1 (human)): 104% | residual activity (PASK (human)): 103% | residual activity (PLK3 (human)): 101% | residual activity (PRKCG (human)): 95.8% | residual activity (PRKD3 (human)): 92.7% | residual activity (RPS6KA3 KD1 KD2 (human)): 93.6% | residual activity (RPS6KA6 KD1 KD2 (human)): 103% | residual activity (SGK3 (human)): 95.6% | residual activity (SRC (human)): 80% | residual activity (STK11 (human)): 102% | residual activity (TEC (human)): 83.2% | residual activity (TTK (human)): 112% | residual activity (TXK (human)): 101%

O=c1cc(-c2cccc3c2Sc2ccccc2S3)oc(N2CCOCC2)c1
residual activity (ADRBK2 (human)): 100% | residual activity (AKT3 (human)): 109% | residual activity (ALK (human)): 96.2% | residual activity (BRSK2 (human)): 101% | residual activity (CAMK1G (human)): 99.4% | residual activity (CAMKK2 (human)): 133% | residual activity (CDC42BPA (human)): 106% | residual activity (CDK3 CCNE1 (human)): 101% | residual activity (CDK5 CDK5R1 p25 (human)): 96.8% | residual activity (CSK (human)): 95.7% | residual activity (DDR2 (human)): 99.2% | residual activity (DSTYK (human)): 93.4% | residual activity (EPHA7 (human)): 106% | residual activity (EPHB1 (human)): 110% | residual activity (FES (human)): 104% | residual activity (FGFR1 (human)): 99.2% | residual activity (FGFR4 (human)): 100% | residual activity (FYN (human)): 88.6% | residual activity (GRK7 (human)): 99.2% | residual activity (INSRR (human)): 98.7% | residual activity (ITK (human)): 96.6% | residual activity (JAK2 JH1 JH2 (human)): 105% | residual activity (LYN (human)): 106% and 116% | residual activity (MAPK1 (human)): 100% | residual activity (MAPK9 (human)): 97.7% | residual activity (MARK2 (human)): 86.3% | residual activity (MKNK2 (human)): 117% | residual activity (NEK1 (human)): 100% | residual activity (NEK7 (human)): 105% | residual activity (PAK1 (human)): 92.3% | residual activity (PASK (human)): 101% | residual activity (PLK3 (human)): 98.1% | residual activity (PRKCG (human)): 96.9% | residual activity (PRKD3 (human)): 83.4% | residual activity (RPS6KA3 KD1 KD2 (human)): 102% | residual activity (RPS6KA6 KD1 KD2 (human)): 98.2% | residual activity (SGK3 (human)): 98.6% | residual activity (SRC (human)): 106% | residual activity (STK11 (human)): 96.5% | residual activity (TEC (human)): 198% | residual activity (TTK (human)): 106% | residual activity (TXK (human)): 106%

O=C(NC(NC(=S)Nc1ccc(F)c([N+](=O)[O-])c1)C(Cl)(Cl)Cl)C(c1ccccc1)c1ccccc1 (stereo not drawn)
residual activity (ADRBK2 (human)): 98.3% | residual activity (AKT3 (human)): 106% | residual activity (ALK (human)): 110% | residual activity (BRSK2 (human)): 102% | residual activity (CAMK1G (human)): 102% | residual activity (CAMKK2 (human)): 126% | residual activity (CDC42BPA (human)): 111% | residual activity (CDK3 CCNE1 (human)): 105% | residual activity (CDK5 CDK5R1 p25 (human)): 96.8% | residual activity (CSK (human)): 99.3% | residual activity (DDR2 (human)): 96.4% | residual activity (DSTYK (human)): 100% | residual activity (EPHA7 (human)): 109% | residual activity (EPHB1 (human)): 109% | residual activity (FES (human)): 104% | residual activity (FGFR1 (human)): 97.7% | residual activity (FGFR4 (human)): 100% | residual activity (FYN (human)): 91.2% | residual activity (GRK7 (human)): 101% | residual activity (INSRR (human)): 93.7% | residual activity (ITK (human)): 94.9% | residual activity (JAK2 JH1 JH2 (human)): 99.9% | residual activity (LYN (human)): 103% and 116% | residual activity (MAPK1 (human)): 97.6% | residual activity (MAPK9 (human)): 88.6% | residual activity (MARK2 (human)): 92.3% | residual activity (MKNK2 (human)): 135% | residual activity (NEK1 (human)): 101% | residual activity (NEK7 (human)): 102% | residual activity (PAK1 (human)): 86% | residual activity (PASK (human)): 104% | residual activity (PLK3 (human)): 94.4% | residual activity (PRKCG (human)): 99.8% | residual activity (PRKD3 (human)): 98.5% | residual activity (RPS6KA3 KD1 KD2 (human)): 96.2% | residual activity (RPS6KA6 KD1 KD2 (human)): 94.7% | residual activity (SGK3 (human)): 85.8% | residual activity (SRC (human)): 96.1% | residual activity (STK11 (human)): 94.2% | residual activity (TEC (human)): 201% | residual activity (TTK (human)): 96.9% | residual activity (TXK (human)): 108%

Nc1n[nH]c2nnc(-c3c(-c4ccccc4)nn4ccccc34)cc12
residual activity (ADRBK2 (human)): 101% | residual activity (AKT3 (human)): 97.5% | residual activity (ALK (human)): 108% | residual activity (BRSK2 (human)): 96.1% | residual activity (CAMK1G (human)): 99.2% | residual activity (CAMKK2 (human)): 101% | residual activity (CDC42BPA (human)): 89.7% | residual activity (CDK3 CCNE1 (human)): 96.8% | residual activity (CDK5 CDK5R1 p25 (human)): 101% | residual activity (CSK (human)): 98% | residual activity (DDR2 (human)): 101% | residual activity (DSTYK (human)): 95.9% | residual activity (EPHA7 (human)): 99.5% | residual activity (EPHB1 (human)): 98.6% | residual activity (FES (human)): 97.8% | residual activity (FGFR1 (human)): 94.7% | residual activity (FGFR4 (human)): 104% | residual activity (FYN (human)): 95% | residual activity (GRK7 (human)): 96.7% | residual activity (INSRR (human)): 95.7% | residual activity (ITK (human)): 90.8% | residual activity (JAK2 JH1 JH2 (human)): 97.1% | residual activity (LYN (human)): 94.9% and 97.1% | residual activity (MAPK1 (human)): 87.2% | residual activity (MAPK9 (human)): 48.4% | residual activity (MARK2 (human)): 104% | residual activity (MKNK2 (human)): 98.3% | residual activity (NEK1 (human)): 109% | residual activity (NEK7 (human)): 95.3% | residual activity (PAK1 (human)): 91.9% | residual activity (PASK (human)): 99.8% | residual activity (PLK3 (human)): 100% | residual activity (PRKCG (human)): 103% | residual activity (PRKD3 (human)): 58.9% | residual activity (RPS6KA3 KD1 KD2 (human)): 98.7% | residual activity (RPS6KA6 KD1 KD2 (human)): 95.5% | residual activity (SGK3 (human)): 90.2% | residual activity (SRC (human)): 100% | residual activity (STK11 (human)): 91.8% | residual activity (TEC (human)): 96.1% | residual activity (TTK (human)): 110% | residual activity (TXK (human)): 88.8%
